Among the data in ChEMBL document CHEMBL5505992, “Novel membrane-targeting isoxanthohumol-amine conjugates for combating methicillin-resistant Staphylococcus aureus (MRSA) infections” (Eur J Med Chem, 2024) are MIC, HC50 and selectivity ratio values, retold here.

In general, MIC refers to the lowest concentration that inhibits growth of the organism. High values mean a need for much substance, low ones inhibition by little substance. In general, HC50 refers to the concentration that lyses half of the red blood cells.

Values after ≈ are worked out from the molar mass of the structure shown.

Series [1] relates to Staphylococcus aureus. Put plainly: Antibacterial activity against Staphylococcus aureus ATCC 29213 measured after 16 to 18 hrs by CLSI method. The following applies: time 16-18 hrs. The class given is functional.
In series [2] the test system is Staphylococcus aureus. Put plainly: Antibacterial activity against methicillin-resistant Staphylococcus aureus clinical isolate MRSA-11 measured after 16 to 18 hrs by CLSI method. The format is functional. The settings on record: time 16-18 hrs.
The test system of series [3] is Staphylococcus aureus. Description: Antibacterial activity against methicillin-resistant Staphylococcus aureus clinical isolate MRSA-13 measured after 16 to 18 hrs by CLSI method. The format is functional. The following applies: time 16-18 hrs.
Series [4] deals with Staphylococcus aureus. Description: Antibacterial activity against methicillin-resistant Staphylococcus aureus clinical isolate MRSA-14 measured after 16 to 18 hrs by CLSI method. The format is functional. The settings on record: time 16-18 hrs.
The test system of series [5] is Staphylococcus aureus. Description: Antibacterial activity against methicillin-resistant Staphylococcus aureus clinical isolate MRSA-16 measured after 16 to 18 hrs by CLSI method. The class given is functional. The settings on record: time 16-18 hrs.
Series [6] has as its system Staphylococcus aureus. Put plainly: Antibacterial activity against methicillin-resistant Staphylococcus aureus clinical isolate MRSA-17 measured after 16 to 18 hrs by CLSI method. The format is functional. The settings on record: time 16-18 hrs.
Series [7] deals with Staphylococcus aureus. Put plainly: Antibacterial activity against methicillin-resistant Staphylococcus aureus clinical isolate MRSA-18 measured after 16 to 18 hrs by CLSI method. The class given is functional. The following applies: time 16-18 hrs.
For series [8], the system named is Staphylococcus aureus. Description: Antibacterial activity against methicillin-resistant Staphylococcus aureus clinical isolate MRSA-20 measured after 16 to 18 hrs by CLSI method. The class given is functional. The settings on record: time 16-18 hrs.
Series [9] has as its system Staphylococcus aureus. Put plainly: Antibacterial activity against methicillin-resistant Staphylococcus aureus clinical isolate MRSA-21 measured after 16 to 18 hrs by CLSI method. The format is functional. The settings on record: time 16-18 hrs.
Series [10] relates to Staphylococcus aureus. Description: Antibacterial activity against methicillin-resistant Staphylococcus aureus clinical isolate MRSA-22 measured after 16 to 18 hrs by CLSI method. The format is functional. The following applies: time 16-18 hrs.
Series [11] deals with Staphylococcus aureus. Put plainly: Antibacterial activity against methicillin-resistant Staphylococcus aureus clinical isolate MRSA-23 measured after 16 to 18 hrs by CLSI method. The following applies: time 16-18 hrs. The format is functional.
Series [12] deals with Escherichia coli. Put plainly: Antibacterial activity against Escherichia coli ATCC25922 measured after 16 to 18 hrs by CLSI method. The format is functional. The following applies: time 16-18 hrs.
Series [13] can be described thus: Hemolytic activity in sheep erythrocytes incubated for 1 hr by absorbance based analysis. The class given is toxicity, cell-based, Ovis aries, Erythrocyte.
Series [14] in a line: Selectivity index, ratio of HC50 for hemolytic activity in sheep erythrocytes to MIC for antibacterial activity against Staphylococcus aureus ATCC 29213. The following applies: read-out: Selectivity Index. The format is toxicity, cell-based.

On to `COc1cc(OCCCN2CCOCC2)c(CC=C(C)C)c2c1C(=O)CC(c1ccc(OCCCN3CCOCC3)cc1)O2` (centres undefined), for which the MIC in series [1], in [2], in series [3], in [4], in [5] and in [6] was over 128 µg/mL in each case. Besides, the MIC in series [7], in [8], in series [9], in series [10], in [11] and in series [12] was over 128 µg/mL throughout. The compound further showed an HC50 at 1 h in [13] of over 1280 µg/mL.
For `COc1cc(OCCCCCN2CCCCC2C)c(CC=C(C)C)c2c1C(=O)CC(c1ccc(OCCCCCN3CCCCC3C)cc1)O2` (centres undefined), the MIC in series [1] is 32 µg/mL (≈ 46.4 µM); in [2], 16 µg/mL (≈ 23.2 µM); in series [3] it was 16 µg/mL (≈ 23.2 µM); in [4], 16 µg/mL (≈ 23.2 µM); in series [5], 8 µg/mL (≈ 11.6 µM); in series [6], 8 µg/mL (≈ 11.6 µM). Also, the MIC in series [7] was 16 µg/mL (≈ 23.2 µM); in series [8], 16 µg/mL (≈ 23.2 µM); in series [9] it was 8 µg/mL (≈ 11.6 µM); in series [10], 16 µg/mL (≈ 23.2 µM); in series [11] it was 16 µg/mL (≈ 23.2 µM); in series [12], over 128 µg/mL. For the same compound, the HC50 at 1 h in series [13] was 292 µg/mL. The selectivity ratio in series [14] came to 9.1.
Turning to `CCCN(CCC)CCCCOc1ccc(C2CC(=O)c3c(OC)cc(OCCCCN(CCC)CCC)c(CC=C(C)C)c3O2)cc1` (centres undefined), the MIC in [1], in series [2], in series [3], in [4], in series [5] and in [6] was 16 µg/mL (≈ 24.1 µM) each time. For the same compound, the MIC in series [7] is 32 µg/mL (≈ 48.1 µM); in [8], 16 µg/mL (≈ 24.1 µM); in series [9], 16 µg/mL (≈ 24.1 µM); in series [10], 16 µg/mL (≈ 24.1 µM); in [11] it was 16 µg/mL (≈ 24.1 µM); in series [12] it was over 128 µg/mL. In series [13], this compound gave a 50% haemolytic concentration (HC50) at 1 h of over 1280 µg/mL. Moreover, the selectivity ratio in series [14] was over 80.
`COc1cc(OCCCCN2CCCCC2)c(CC=C(C)C)c2c1C(=O)CC(c1ccc(OCCCCN3CCCCC3)cc1)O2` (centres undefined): the MIC in series [1] was 32 µg/mL (≈ 50.6 µM); in series [2], 16 µg/mL (≈ 25.3 µM); in [3], 16 µg/mL (≈ 25.3 µM); in series [4] it was 32 µg/mL (≈ 50.6 µM); in series [5], 16 µg/mL (≈ 25.3 µM); in series [6], 16 µg/mL (≈ 25.3 µM). The MIC in series [7] was 32 µg/mL (≈ 50.6 µM); in series [8], 16 µg/mL (≈ 25.3 µM); in series [9] it was 32 µg/mL (≈ 50.6 µM); in series [10], 16 µg/mL (≈ 25.3 µM); in series [11], 16 µg/mL (≈ 25.3 µM); in [12] it was over 128 µg/mL. For the same compound, the HC50 at 1 h in series [13] came out at 199 µg/mL. Also, the selectivity ratio in [14] was over 6.2.
In series [12], `C[C@@H](O)[C@H]1C(=O)N2C(C(=O)O)=C(S[C@@H]3CN[C@H](C(=O)N(C)C)C3)[C@H](C)[C@H]12` [MEROPENEM] yielded an MIC of 0.062 µg/mL (≈ 0.162 µM).
As for `CCCN(CCC)CCCCCOc1ccc(C2CC(=O)c3c(OC)cc(OCCCCCN(CCC)CCC)c(CC=C(C)C)c3O2)cc1` (centres undefined), the MIC in [1], in series [2], in series [3], in [4], in series [5] and in series [6] was 8 µg/mL (≈ 11.5 µM) throughout. Moreover, the MIC in series [7] was 16 µg/mL (≈ 23.1 µM); in series [8], 8 µg/mL (≈ 11.5 µM); in [9] it was 8 µg/mL (≈ 11.5 µM); in series [10], 8 µg/mL (≈ 11.5 µM); in series [11], 16 µg/mL (≈ 23.1 µM); in series [12], over 128 µg/mL. The same compound had a 50% haemolytic concentration (HC50) at 1 h in series [13] of 331 µg/mL. For the same compound, the selectivity ratio in [14] worked out at 41.4.
With `COc1cc(OCCCCCN2CCN(C)CC2)c(CC=C(C)C)c2c1C(=O)CC(c1ccc(OCCCCCN3CCN(C)CC3)cc1)O2` (centres undefined), the MIC in [1] is 16 µg/mL (≈ 23.2 µM); in [2], 16 µg/mL (≈ 23.2 µM); in series [3], 16 µg/mL (≈ 23.2 µM); in series [4], 16 µg/mL (≈ 23.2 µM); in [5] it was 16 µg/mL (≈ 23.2 µM); in series [6] it was 8 µg/mL (≈ 11.6 µM). For the same compound, the MIC in series [7] is 16 µg/mL (≈ 23.2 µM); in series [8], 16 µg/mL (≈ 23.2 µM); in series [9], 16 µg/mL (≈ 23.2 µM); in series [10], 16 µg/mL (≈ 23.2 µM); in series [11] it was 16 µg/mL (≈ 23.2 µM); in series [12] it was over 128 µg/mL. Moreover, the HC50 at 1 h in series [13] was over 1280 µg/mL. In series [14], the selectivity ratio was over 80.
As to `COc1cc(OCCCCCN(CC(C)C)CC(C)C)c(CC=C(C)C)c2c1C(=O)CC(c1ccc(OCCCCCN(CC(C)C)CC(C)C)cc1)O2` (centres undefined), the MIC in series [1], in [2], in series [3], in series [4], in series [5] and in series [6] was over 128 µg/mL throughout. Also, the MIC in series [7], in series [8], in [9], in series [10], in [11] and in series [12] was over 128 µg/mL throughout. For the same compound, the HC50 at 1 h in [13] is over 1280 µg/mL.
In the case of `COc1cc(OCCCN(CC(C)C)CC(C)C)c(CC=C(C)C)c2c1C(=O)CC(c1ccc(OCCCN(CC(C)C)CC(C)C)cc1)O2` (centres undefined), the MIC is over 128 µg/mL in [1]; 64 µg/mL (≈ 92.3 µM) in series [2]; over 128 µg/mL in series [3]; 64 µg/mL (≈ 92.3 µM) in [4]; over 128 µg/mL in [5]; over 128 µg/mL in series [6]. Besides, the MIC in series [7] is over 128 µg/mL; in series [8], over 128 µg/mL; in [9], 32 µg/mL (≈ 46.2 µM); in series [10], 32 µg/mL (≈ 46.2 µM); in series [11] it was 32 µg/mL (≈ 46.2 µM); in [12] it was over 128 µg/mL. Moreover, in series [13], the HC50 at 1 h is over 1280 µg/mL.
Turning to `COc1cc(OCCCCN(CC(C)C)CC(C)C)c(CC=C(C)C)c2c1C(=O)CC(c1ccc(OCCCCN(CC(C)C)CC(C)C)cc1)O2` (centres undefined), the MIC in [1], in series [2], in [3], in [4], in series [5] and in series [6] was over 128 µg/mL in each case. For the same compound, the MIC in series [7], in series [8], in series [9], in series [10], in series [11] and in series [12] was over 128 µg/mL in each case. This compound displayed an HC50 at 1 h in [13] of over 1280 µg/mL.
`COc1cc(O)c(CC=C(C)C)c2c1C(=O)CC(c1ccc(O)cc1)O2` (centres undefined) [ISOXANTHOHUMOL]: the MIC in [1] was over 64 µg/mL; in series [2] it was 64 µg/mL (≈ 181 µM); in [3] it was over 64 µg/mL; in series [4] it was over 64 µg/mL; in series [5], 64 µg/mL (≈ 181 µM); in series [6], over 64 µg/mL. For the same compound, the minimal inhibitory concentration (MIC) in [7] is over 64 µg/mL; in series [8], 64 µg/mL (≈ 181 µM); in series [9], 64 µg/mL (≈ 181 µM); in series [10] it was 64 µg/mL (≈ 181 µM); in series [11], 64 µg/mL (≈ 181 µM); in series [12] it was over 64 µg/mL. The HC50 at 1 h in series [13] is over 320 µg/mL.
For the compound `COc1cc(OCCCN2CCSCC2)c(CC=C(C)C)c2c1C(=O)CC(c1ccc(OCCCN3CCSCC3)cc1)O2` (centres undefined), the MIC in series [1], in series [2], in series [3], in [4], in series [5] and in [6] was over 128 µg/mL throughout. In addition, the MIC in series [7], in [8], in series [9], in series [10], in series [11] and in series [12] was over 128 µg/mL in each case. For the same compound, in [13], the HC50 at 1 h is over 640 µg/mL.
